One molecule from patent US5430053A, “Isolation and structure of dictyostatin 1” (Arizona Board of Regents acting on behalf of Arizona State …, priority 1994, dated 1995) can be followed below.

Test [1] relates to P388 lymphocytic leukemia. The test can be described thus: P388 lymphocytic leukemia cell line (PS system) growth inhibition. The format is cell-based, murine.
Another test deals with human cancer cell lines. The test is described as follows: NCI panel of sixty human cancer cell lines. Conditions: for activity against human cancer cell lines (in words): NCI panel. It counts as cell-based. An excerpt:
(§1) Only two hundred years ago, many diseases ravaged humankind. Many of these diseases now have been controlled or eradicated. In the development of the means to treat or control these diseases, work with the appropriate common experimental animals was of critical importance. With the various types of cancers, and with the HIV virus, such work is presently ongoing. The research for the treatment of various types of cancer is coordinated in the United States by the National Cancer Institute (NCI). NCI, as a government entity, has been charged with assisting, inter alia, anti-cancer research. To determine whether a substance has anti-cancer activity, NCI has established a variety of protocols, one of which involves testing the candidate substance against a cell line panel containing 60 human tumor cell lines. This protocol has been verified and is generally accepted throughout the scientific community. This protocol and the established statistical means of evaluating the results obtained therefrom have been fully described in the literature. See Principles & Practice of Oncology PPO Updates, Volume 3, Number 10, October 1989, by Michael R. Boyd, M.D., Ph.D., for an in depth description of the test protocol. The statistical analysis of the test protocol is explained in "Display and Analysis of Patterns of Differential Activity of Drugs Against Human Tumor Cell Lines: Development of Means Graph and COMPARE Algorithm" Journal of the National Cancer Institute Reports Vol. 81, No. 14, Pg. 1088, Jul. 14, 1989, by K. D. Paull et al. The context of both of these references is specifically incorporated herein by this reference thereto.

Test [2] concerns NCI H460 non-small cell lung. The test can be described thus: NCI panel, NCI H460. It counts as cell-based, human.
Description: as §1, with “The statistical analysis of the test protocol is explained in "Display and Analysis of Patterns of Differential Activity of Drugs Against Human Tumor Cell Lines: Development of Means Graph and COMPARE Algorithm" Journal of the National Cancer Institute Reports Vol. 81, No. 14, Pg. 1088, Jul. 14, 1989, by K. D. Paull et al. The context of both of these references is specifically incorporated herein by this reference thereto.” left out

Another test deals with KM 20L2 colon. The test can be described thus: NCI panel, KM 20L2. It counts as cell-based, human.
Description: as §1, with “The statistical analysis of the test protocol is explained in "Display and Analysis of Patterns of Differential Activity of Drugs Against Human Tumor Cell Lines: Development of Means Graph and COMPARE Algorithm" Journal of the National Cancer Institute Reports Vol. 81, No. 14, Pg. 1088, Jul. 14, 1989, by K. D. Paull et al. The context of both of these references is specifically incorporated herein by this reference thereto.” left out

The test system of the next test is SF-295 CNS. The test can be described thus: NCI panel, SF-295. The format is cell-based, human.
Description: as §1, with “The statistical analysis of the test protocol is explained in "Display and Analysis of Patterns of Differential Activity of Drugs Against Human Tumor Cell Lines: Development of Means Graph and COMPARE Algorithm" Journal of the National Cancer Institute Reports Vol. 81, No. 14, Pg. 1088, Jul. 14, 1989, by K. D. Paull et al. The context of both of these references is specifically incorporated herein by this reference thereto.” left out

For the next test, the system named is SK-MEL-5 melanoma. The test can be described thus: NCI panel, SK-MEL-5. It counts as cell-based, human.
Description: as §1, with “The statistical analysis of the test protocol is explained in "Display and Analysis of Patterns of Differential Activity of Drugs Against Human Tumor Cell Lines: Development of Means Graph and COMPARE Algorithm" Journal of the National Cancer Institute Reports Vol. 81, No. 14, Pg. 1088, Jul. 14, 1989, by K. D. Paull et al. The context of both of these references is specifically incorporated herein by this reference thereto.” left out

In another test the test system is OVCAR-3 ovarian. The test is described as follows: NCI panel, OVCAR-3. It counts as cell-based, human.
Description: as §1, with “The statistical analysis of the test protocol is explained in "Display and Analysis of Patterns of Differential Activity of Drugs Against Human Tumor Cell Lines: Development of Means Graph and COMPARE Algorithm" Journal of the National Cancer Institute Reports Vol. 81, No. 14, Pg. 1088, Jul. 14, 1989, by K. D. Paull et al. The context of both of these references is specifically incorporated herein by this reference thereto.” left out

Another test relates to A-498 renal. The test is described as follows: NCI panel, A-498. The format is cell-based, human.
Description: as §1, with “The statistical analysis of the test protocol is explained in "Display and Analysis of Patterns of Differential Activity of Drugs Against Human Tumor Cell Lines: Development of Means Graph and COMPARE Algorithm" Journal of the National Cancer Institute Reports Vol. 81, No. 14, Pg. 1088, Jul. 14, 1989, by K. D. Paull et al. The context of both of these references is specifically incorporated herein by this reference thereto.” left out

Molecules are shown by their SMILES. Values after ≈ are worked out from the molar mass of the structure shown. “Also recorded” adds a separate entry of the source. Where two headings read alike, the source gives them in different places.

For the molecule `C=C/C=C\C(C)C1OC(=O)/C=C\C=C\C(C)C(O)CC(O)/C=C\C(C)C(O)C(C)CC(C)CCC(O)C1C` (stereo not drawn) [dictyostatin 1], the “growth inhibition of murine P388 lymphocytic leukemia (in words)” value in test [1] is “strongly inhibit growth”; in test [1] (listed as Dictyostatin 1), “phenomenally potent (and selective) activity; also recorded: strongly inhibit growth”. For the same molecule, the IC50 in test [1] (Mus musculus, P388, pure dictyostatin 1, read-out: P388 ED50) is 0.38 ng/mL (≈ 0.713 nM). For the same molecule, the “activity against human cancer cell lines (in words)” value with human cancer cell lines was “strong cancer cell growth inhibitory properties; also recorded: remarkably potent and specific”; in the test with human cancer cell lines (listed as Dictyostatin 1), “phenomenally potent (and selective) activity; also recorded: strongly inhibit growth”. The “NCI data (in words)” value in the test on human cancer cell lines (ovarian, CNS, renal, lung (non small cell), colon, and melanoma cells) is on record as “extremely positive results”. Moreover, the “activity against NCI H460 (in words)” value in test [2] is “active and selective”. In addition, the “activity against KM 20L2 (in words)” value in the test with KM 20L2 colon was “active and selective”. The “activity against SF-295 (in words)” value with SF-295 CNS is “active and selective”. In addition, in the test on SK-MEL-5 melanoma, the “activity against SK-MEL-5 (in words)” value was “active and selective”. For the same molecule, the “activity against OVCAR-3 (in words)” value with OVCAR-3 ovarian is “active and selective”. Moreover, in the test with A-498 renal, the “activity against A-498 (in words)” value was “active and selective”.
